In data set [1] the test system is resistant-strain of planthoppers for organophosphate and carbamate insecticides. Put plainly: Efficacy against planthoppers (rice seedling dip). The data set is classed as in vivo. To be noted: Oryza sativa, 120 h, read-out: Mortality (5days later) 125 ppm. The source says: Test Example 2: Efficacy against planthoppers
Young seedlings of rice plant at the stage of 7 days after germination were dipped for 30 seconds in the compound solution of the emulsifiable concentrate according to the recipe of Example 6 adjusted to 125 ppm concentration by diluting with water. After seedlings were dried, they were put into the inside of test tubes and 10 third instar larva of resistant-strain of planthoppers for organophosphate and carbamate insecticides were respectively inoculated in each test tube. The test tubes were shielded with gauze and allowed to stand in the incubator maintained at 25°C and 65% R.H., then the percentage killed were counted after 5 days.

Another data set relates to Cotton aphids. Description: Efficacy against cotton aphids (spray on cucumber leaves). The data set is classed as in vivo. Particulars: for mortality at 125 ppm: 168 h, read-out: Control E fficacy (7 days later) 125ppm. Here is the method:
Test Example 1: Efficacy against cotton aphids
Cotton aphids were inoculated at the rate of 30-50 aphids per plot on 10 days old cucumber leaves grown in 10 cm pot by using small brush respectively. The aphids injured during inoculation were eliminated after one day, then the compound solution adjusted to 125 ppm concentration by dilution emulsifiable concentrate according to the recipe of the Example 6 with water was sprayed thereto. The aphids were allowed to stand in incubator maintained at 25 °C and 65% R.H., then counted the number of living aphids after 7 days whereby the control ratio was determined in comparison with the untreated plot.

The mark [2] stands for this setting: rice seedlings dipped 30 seconds in 125 ppm solution, 10 third instar larva per test tube, percentage killed after 5 days, 25°C, 65% R.H.
[3] abbreviates: 125 ppm spray of emulsifiable concentrate (Example 6) on cucumber leaves, living aphids counted after 7 days, compared with the untreated plot, 25 °C, 65% R.H.

The record followed here is patent EP0539588A1, “AMINE DERIVATIVE” (NIPPON SODA CO., LTD., priority 1990, dated 1992).

Read-outs that look alike come from different tables or passages of the source.

With `O=C1C=C(N(Cc2ccc(Cl)nc2)C2CC2)CO1` [compound 88], the mortality at 125 ppm (in data set [1] (setting [2]); in the data set with Cotton aphids (setting [3])) was 100% throughout.
For the compound `CC1=C(N(C)Cc2ccc(Cl)nc2)CCC1=O` [compound 187], the mortality at 125 ppm in data set [1] (setting [2]) is 100%.
Still for that read-out and setting: the figure for `O=C1CCCC(NCc2ccc(Cl)nc2)=C1Cl` [compound 23] is 100%; for `Cn1c(NCc2ccc(Cl)nc2)cc(=O)n(C)c1=O` [Compound No. 70, 4-(2-chloro-5-pyridylmethylamino)-1,3-dimethyluracil] it is 100%; for `O=C1C=C(NCc2ccc(Cl)nc2)CSC1` [compound 80] it is 100%.
Still for that read-out and setting: the figure for `Cn1c(NCc2ccc(Cl)nc2)c([N+](=O)[O-])c(=O)n(C)c1=O` [Compound No. 71, 4-(2-chloro-5-pyridylmethylamino)-1,3-dimethyl-5-nitrouracil] is 100%.
With `CC1OC(=O)C=C1NCc1ccc(Cl)nc1` (stereo not shown) [compound 116], the mortality at 125 ppm (in data set [1] (setting [2]); in the data set with Cotton aphids (setting [3])) was 100% each time.
`O=C1C=C(NCc2ccc(Cl)nc2)CCO1` [compound 74]: the mortality at 125 ppm (in data set [1] (setting [2]); in the data set on Cotton aphids (setting [3])) was 100% each time.
`CN(Cc1ccc(Cl)nc1)C1=CC(=O)OC1` [compound 84]: the mortality at 125 ppm (in data set [1] (setting [2]); in the data set with Cotton aphids (setting [3])) was 100% throughout.
With `CC1CC(=O)C=C(NCc2ccc(Cl)nc2)C1` (stereo not shown) [compound 34], the mortality at 125 ppm in data set [1] (setting [2]) is 100%.
Take `CCCN(Cc1ccc(Cl)nc1)C1=CC(=O)OC1` [compound 86]: the mortality at 125 ppm (in data set [1] (setting [2]); in the data set with Cotton aphids (setting [3])) was 100% in each case.
`CN(Cc1ccc(Cl)nc1)C1=C(F)C(=O)OC1` [compound 104]: the mortality at 125 ppm (in data set [1] (setting [2]); with Cotton aphids (setting [3])) was 100% throughout.
Take `CSC1CCC(NCc2ccc(Cl)nc2)=CC1=O` (stereo not shown) [compound 31]: the mortality at 125 ppm (in data set [1] (setting [2]); in the data set with Cotton aphids (setting [3])) was 100% throughout.
On to `O=C1OCC(NCc2ccc(Cl)nc2)=C1Br` [compound 103], for which the mortality at 125 ppm (in data set [1] (setting [2]); with Cotton aphids (setting [3])) was 100% each time.
In the case of `CN1CC(NCc2ccc(Cl)nc2)=CC1=O` [compound 161], the mortality at 125 ppm in data set [1] (setting [2]) stood at 100%.
In the case of `CN1C(=O)C([N+](=O)[O-])=C(NCc2ccc(Cl)nc2)N(C)S1(=O)=O` [compound 73], in data set [1] (setting [2]), the mortality at 125 ppm was 100%.
`O=C1C=C(NCc2ccc(Cl)nc2)CS1` [compound 111]: the mortality at 125 ppm (in data set [1] (setting [2]); in the data set on Cotton aphids (setting [3])) was 100% in each case.
Take `Cc1cc(NCc2ccc(Cl)nc2)cc(=O)o1` [Compound No. 77, 4-(2-chloro-5-pyridylmethylamino)-6-methylpyran-2-on]: the mortality at 125 ppm in data set [1] stood at 100%.
In the case of `O=C1C=C(NCc2ccc(Cl)nc2)CO1` [compound 83], the mortality at 125 ppm (in data set [1] (setting [2]); in the data set on Cotton aphids (setting [3])) was 100% in each case.
Regarding `CC1CCC(NCc2ccc(Cl)nc2)=CC1=O` (stereo not shown) [compound 29], the mortality at 125 ppm (in data set [1] (setting [2]); with Cotton aphids (setting [3])) was 100% throughout.
`CN(Cc1ccc(Cl)nc1)C1=CC(=O)SC1` [compound 112]: the mortality at 125 ppm (in data set [1] (setting [2]); in the data set with Cotton aphids (setting [3])) was 100% in each case.
Take `CN(Cc1cnc(Cl)s1)C1=CC(=O)CCC1` [compound 60]: the mortality at 125 ppm (in data set [1] (setting [2]); in the data set on Cotton aphids (setting [3])) was 100% each time.
For the compound `CN(Cc1cnc(Cl)s1)C1=CC(=O)OC1` [compound 144], the mortality at 125 ppm (in data set [1] (setting [2]); in the data set on Cotton aphids (setting [3])) was 100% throughout.
With `Cc1nc(N(C)C)nc(OC(=O)N(C)C)c1C` [Comparative Compound A, Pyrimicarb, reference compound], in the data set with Cotton aphids (setting [3]), the “Control E fficacy (7 days later) 125ppm” value was found to be 0%.
With `O=C1C=C(NCc2ccc(Cl)nc2)CCC1` [Compound No. 1, 1-(2-chloro-5-pyridylmethylamino)-1-cyclohexene-3-on], the mortality at 125 ppm (in data set [1]; in the data set with Cotton aphids) was 100% each time.
Take `C=CCN(Cc1ccc(Cl)nc1)C1=CC(=O)OC1` [compound 91]: the mortality at 125 ppm (in data set [1] (setting [2]); in the data set with Cotton aphids (setting [3])) was 100% each time.
On to `CN(Cc1ccc(Cl)nc1)C1=CC(=O)CC1` [compound 175], for which the mortality at 125 ppm (in data set [1] (setting [2]); with Cotton aphids (setting [3])) was 100% throughout.
On to `O=C1C=C(N(Cc2ccc(Cl)nc2)C(=O)C2CC2)CO1` [compound 96], for which, in data set [1] (setting [2]), the mortality at 125 ppm was 100%.
Regarding `CC(C)CN(Cc1ccc(Cl)nc1)C1=CC(=O)OC1` [compound 89], the mortality at 125 ppm (in data set [1] (setting [2]); with Cotton aphids (setting [3])) was 100% in each case.
For the compound `CC1OC(=O)C=C1N(C)Cc1ccc(Cl)nc1` (stereo not shown) [compound 117], the mortality at 125 ppm (in data set [1] (setting [2]); with Cotton aphids (setting [3])) was 100% each time.
For `CCN(Cc1ccc(Cl)nc1)C1=CC(=O)OC1` [compound 85], the mortality at 125 ppm (in data set [1] (setting [2]); with Cotton aphids (setting [3])) was 100% in each case.
Consider `O=C1C=C(NCc2cnc(Cl)s2)CO1` [compound 143], for which the mortality at 125 ppm (in data set [1] (setting [2]); in the data set on Cotton aphids (setting [3])) was 100% in each case.
For the compound `CON(Cc1ccc(Cl)nc1)C1=CC(=O)OC1` [compound 98], the mortality at 125 ppm (in data set [1] (setting [2]); in the data set on Cotton aphids (setting [3])) was 100% throughout.
In the case of `CC1CC(NCc2ccc(Cl)nc2)=CC(=O)O1` (stereo not shown) [compound 75], the mortality at 125 ppm (in data set [1] (setting [2]); in the data set with Cotton aphids (setting [3])) was 100% each time.
Regarding `O=C1C=C(NCc2cnc(Cl)s2)CCC1` [compound 59], the mortality at 125 ppm (in data set [1] (setting [2]); in the data set on Cotton aphids (setting [3])) was 100% each time.
As for `Cc1cc(NCc2ccc(Cl)nc2)c([N+](=O)[O-])c(=O)n1C` [compound 69], in data set [1] (setting [2]), the mortality at 125 ppm was found to be 100%.
Regarding `CSC1CCC(N(C)Cc2ccc(Cl)nc2)=CC1=O` (stereo not shown) [compound 42], in data set [1] (setting [2]), the mortality at 125 ppm stood at 100%.
As for `CCOC(=O)CC(SP(=S)(OC)OC)C(=O)OCC` (stereo not shown) [Comparative Compound B, Malathion, reference compound], in data set [1], the mortality at 125 ppm turned out to be 0%.
Consider `CN(Cc1ccc(Cl)nc1)C1=CC(=O)OCC1` [compound 82], for which the mortality at 125 ppm (in data set [1] (setting [2]); with Cotton aphids (setting [3])) was 100% each time.
Take `O=C1OCC(N(Cc2ccc(Cl)nc2)C2CC2)=C1F` [compound 105]: the mortality at 125 ppm (in data set [1] (setting [2]); with Cotton aphids (setting [3])) was 100% throughout.
For `CC1(C)CCC(NCc2ccc(Cl)nc2)=CC1=O` [compound 30], in data set [1] (setting [2]), the mortality at 125 ppm stood at 100%.
